In article PMC7022718, “Composition and Insecticidal Activity of Essential Oil of Bacopa caroliniana and Interactive Effects of Individual Compounds on the Activity” (Insects, 2019):

Tested on: T1, acetylcholine esterase (AChE), crude, from rice weevil
T1 construct: gene ace1; native, unpurified; supernatant of whole adult homogenate in phosphate buffer pH 7.4 (8775 g, 20 min)
Assay: Ellman colorimetric assay, […] nm
Format: biochemical, Sitophilus oryzae
Conditions: crude enzyme; acetylthiocholine iodide 2.5 mM, pH 7.4, 35 °C, 15 min preincubation, compound in ethanol

Compound | AChE-IC50 (μL mL^-1) [µL mL^−1]
CC1=CCC(C(C)C)=CC1 [γ-Terpinene] | > 500
CC1=CCC(=C(C)C)CC1 [α-Terpinolene] | 1.10 ± 0.17
CC1=CC=C(C(C)C)CC1 [α-Terpinene] | > 500
C=CC(=C)CCC=C(C)C [β-Myrcene] | > 500
C=C1CC/C=C(\C)CC[C@@H]2[C@@H]1CC2(C)C [β-Caryophyllene] | > 500
CC12CCC(CC1)C(C)(C)O2 [1,8-Cineole] | 31.13 ± 2.20
C=C1CCC2(C(C)C)CC12 (stereo not drawn) [Sabinene] | 85.03 ± 0.20
C=CC(C)(O)CCC=C(C)CCC=C(C)C (stereo not drawn) [Nerolidol] | 331.24±21.55
CC(C)=CCCC(C)CCO (stereo not drawn) [Citronellol] | 86.08 ± 1.09
C=C1CCC2CC1C2(C)C (stereo not drawn) [β-Pinene] | > 500
CC1=CCC(C(C)(C)O)CC1 (stereo not drawn) [α-Terpineol] | 18.39 ± 1.52
C=CC(C)(O)CCC=C(C)C (stereo not drawn) [Linalool] | 44.33 ± 1.31
CC1=CCC2CC1C2(C)C (stereo not drawn) [α-Pinene] | 1.81 ± 0.20
C=C1CC[C@H]2O[C@]2(C)CC[C@@H]2[C@@H]1CC2(C)C [Caryophyllene oxide] | > 500
Cc1ccc(C(C)C)cc1 [p-Cymene] | > 500
C=CC(O)CCCCC (stereo not drawn) [1-Octen-3-ol] | 14.82 ± 0.12
C=C(C)C1CC=C(C)CC1 (stereo not drawn) [Limonene] | 9.57 ± 1.37
CC1=CCC(O)(C(C)C)CC1 (stereo not drawn) [4-Terpineol] | 11.29 ± 0.02
